Experimental data published in paper PMC7288052 (Molecules, 2020).
Read-outs that look alike come from different tables or passages of the source. Non-standard residues stand in square brackets, D forms with d. Residues, ends and D or L forms follow the SMILES beside them.

How the values were obtained:
μ-opioid receptor (μOR) = target: T1, μ-opioid receptor (μOR) (Rattus norvegicus, UniProt P33535); assay: competitive radioligand displacement assay, μOR, [3H]DAMGO, rat brain homogenate membranes; type: binding; details: for decrease in μOR affinity compared to the parent TAPP: ratio of IC50 versus TAPP
T1 construct: from tissue; host or cells: rat brain homogenate (membrane fractions)
T1 sequence (P33535 whole entry): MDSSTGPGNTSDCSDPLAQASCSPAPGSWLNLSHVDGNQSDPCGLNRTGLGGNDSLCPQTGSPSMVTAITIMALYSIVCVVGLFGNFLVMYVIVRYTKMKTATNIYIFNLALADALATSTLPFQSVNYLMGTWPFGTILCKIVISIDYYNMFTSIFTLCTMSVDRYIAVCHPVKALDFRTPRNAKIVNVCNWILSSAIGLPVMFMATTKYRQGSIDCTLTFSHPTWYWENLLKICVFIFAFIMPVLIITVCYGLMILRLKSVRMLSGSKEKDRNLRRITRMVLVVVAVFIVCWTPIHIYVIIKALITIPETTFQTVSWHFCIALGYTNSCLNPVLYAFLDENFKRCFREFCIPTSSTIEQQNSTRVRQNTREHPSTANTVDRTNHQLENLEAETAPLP
Description: (§1) The determinations were performed by a competitive radioligand displacement assay with selective radioligands.
(§2) Membrane fractions of rat brain Homogenate were incubated at 25 °C for 60 mins in the presence of radioligands (0.5 nM) specific for each receptor (μOR: [^3H]DAMGO and δOR: [^3H]DELT II, obtained as a generous gift from Prof. Géza Tóth) and the increasing concentrations of the tested compounds (10^−11 up to 10^−5 M, each concentration in duplicate). For measuring non-specific binding, 10 μM naloxone was used as the competitor. The assay buffer contained 50mM Tris-HCl (pH 7.4), bovine serum albumin (0.1 mg/mL), bacitracin (30 μg/mL), bestatin (30 μM), captopril (10 μM), and phenylmethylsulfonyl fluoride (0.1 mM) in the total reaction volume of 1 mL. After the incubation, the binding reactions were terminated by rapid filtration with M-24 Cell Harvester (Brandel/USA) through GF/B Whatman glass fibre strips. The filters were pre-soaked with 0.5% PEI before harvesting in order to minimize non-specific binding. Filter discs were placed separately in 24-well plates and immersed with the Optiphase Supermix scintillation cocktail (Perkin Elmer, Waltham, MA, USA). Radioactivity was measured using a MicroBeta LS Trilux scintillation counter (PerkinElmer, Waltham, MA, USA).

[1] = stability against proteolysis in human plasma by HPLC/MS; type: in vitro ADME; details: for remaining at 96 h, 350 µM: read-out: C96h, percent of the initial peptide concentration remaining after 96 h; for stability in human plasma in words: up to 96 h, compared to TAPP; for half-life / half-life at […]: read-out: half-life time (T1/2) in human plasma (converted); for site of the first proteolytic cleavage: HPLC/MS
Description: The results are graphically presented in Figure 7 and the representative HPLC chromatograms are given in Figures SM-STAB-1 to SM-STAB-22 in Supplementary Materials. […] After 96 h, more than 90% of the initial peptide concentration (C96h > 90%) remained in the test sample. This is in marked contrast to endomorphin-2 (Tyr-Pro-Phe-Phe-NH2) that, in the very same conditions, is rapidly degraded with half-life time (T1/2) of only 30 min.
The determination of plasma stability was performed according to a previously described protocol with minor modifications. Human plasma for testing was obtained from a healthy donor. […] Portions of the plasma (100 μL) were dispensed into Eppendorf tubes and equilibrated at 37 ± 1 °C for 5 min, before adding 100 μL of the stock solution of each tested peptide. Samples of the test solution were taken and analyzed at several time points (0, 1, 2, 3, 4, 5, 6, 12, 24, 48, and 96 h of the experiment).
In order to precipitate the plasma proteins, 400 μL ethanol (98%) was added to the samples, whereafter shaking (1 min) and cooling in 4 °C (5 min) followed. Subsequently, the samples were centrifuged for 10 min at 2000 g. The supernatant (20 μL) was immediately analyzed by HPLC/MS using the LCMS-2010EV Shimadzu apparatus with a Phenomenex Jupiter 4u Proteo 90A, C12 (25 cm × 2 mm × 4 μm) column. The chromatography was performed in reversed-phase system (solvents A: 0.05% FA in water, B: 0.05% FA in acetonitrile) with a non-linear gradient was used (1–31% B in 20 min followed by an increase to 97% B from 20 to 30 min) at a solvent flow of 0.5 mL/min. The activity of the plasma was confirmed by using endomorphin-2 ([…]) as a control sample. The results of the HPLC/MS analyses allowed for quantitative determination of the concentration changes of the tested peptides. Furthermore, it was possible to indicate the location of the first proteolytic cleavage.

δ-opioid receptor (δOR) = target: T2, δ-opioid receptor (δOR) (Rattus norvegicus, UniProt P33533); assay: competitive radioligand displacement assay, δOR, [3H]DELT II, rat brain homogenate membranes; type: binding; details: for δOR affinity in words: [3H]DELT II displacement, compared to parent TAPP
T2 construct: from tissue; host or cells: rat brain homogenate (membrane fractions)
T2 sequence (P33533 whole entry): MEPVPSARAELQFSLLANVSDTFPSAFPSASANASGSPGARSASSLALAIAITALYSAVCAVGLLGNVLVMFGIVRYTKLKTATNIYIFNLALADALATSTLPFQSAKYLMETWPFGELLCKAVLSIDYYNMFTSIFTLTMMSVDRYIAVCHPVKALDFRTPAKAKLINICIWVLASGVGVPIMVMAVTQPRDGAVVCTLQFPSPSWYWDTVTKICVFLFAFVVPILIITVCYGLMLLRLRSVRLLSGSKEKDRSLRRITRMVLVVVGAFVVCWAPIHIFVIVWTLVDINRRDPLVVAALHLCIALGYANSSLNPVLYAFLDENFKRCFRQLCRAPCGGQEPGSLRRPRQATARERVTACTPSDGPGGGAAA
Description: as §1, §2

[2] = Human plasma for testing was obtained from a healthy donor; details: 37 ± 1 °C, up to 96 h
[3] = radioligand 0.5 nM [3H]DAMGO, rat brain homogenate, mean of three determinations in duplicate, read-out: IC50 ± S.E.M. μOR
[4] = radioligand 0.5 nM [3H]DELT II, rat brain homogenate, mean of three determinations in duplicate, read-out: IC50 δOR

Question: With `C[C@@H](NC(=O)[C@@H](N)Cc1ccc(O)cc1)C(=O)N[C@@H](Cc1ccccc1)C(=O)NC[C@H](Cc1ccccc1)C(N)=O` [compound 17, [(S)-β^2hPhe^4]-TAPP] as the compound, how does the IC50 (μ-opioid receptor (μOR)) read?
Answer: 7.8 ± 4 nM

Question: And the remaining at 96 h, 350 µM ([1]; 37 °C)?
Answer: ~90%

Question: What about the “stability in human plasma in words” value [1] of the same compound?
Answer: equally resistant to proteolysis as the parent

Question: What about the IC50 (δ-opioid receptor (δOR)) of the same compound?
Answer: 417 nM

Question: What about the “δOR affinity in words” value (δ-opioid receptor (δOR)) of the same compound?
Answer: slight improvement in δOR affinity when compared to the parent peptide

Question: For `C[C@@H](CNC(=O)[C@@H](N)Cc1ccc(O)cc1)C(=O)N[C@@H](Cc1ccccc1)C(=O)N[C@@H](Cc1ccccc1)C(N)=O` [compound 10, [(S)-β^2hAla^2]-TAPP], which half-life ([1]; 37 °C) is on record?
Answer: ~4.5 h

Question: Which IC50 (μ-opioid receptor (μOR)) does the source give for `C[C@@H](NC(=O)[C@@H](N)Cc1ccc(O)cc1)C(=O)N[C@@H](Cc1ccccc1)C(=O)NC[C@@H](Cc1ccccc1)C(N)=O` [compound 12, [(R)-β^2hPhe^4]-TAPP] here?
Answer: 1.9 ± 2.4 nM

Question: What about the remaining at 96 h, 350 µM ([1]; 37 °C) of the same compound?
Answer: 55%

Question: And the IC50 (δ-opioid receptor (δOR))?
Answer: 708 nM

Question: And the “δOR affinity in words” value (δ-opioid receptor (δOR))?
Answer: at a level similar to the parent TAPP

Question: With H-Y[dA]FF-NH2 as the compound, how does the cleaved bond [2] read?
Answer: Phe4-NH2, first_seen

Question: Which cleaved bond [2] does the source give for [(R)-β^2h-m-Tyr^1]-TAPP* here?
Answer: Phe4-NH2, first_seen

Question: With [(S)-β^2h-m-Tyr^1]-TAPP* as the compound, how does the cleaved bond [2] read?
Answer: Phe4-NH2, first_seen

Question: Which cleaved bond [2] does the source give for [(R)-β^2hPhe^3]-TAPP here?
Answer: Tyr1-D-Ala2, first_seen

Question: Which cleaved bond [2] does the source give for [(R)-β^2hAla^2]-TAPP here?
Answer: Tyr1-(R)-β^2hAla2, first_seen

Question: Which cleaved bond [2] does the source give for [(S)-β^2hPhe^4]-TAPP here?
Answer: Tyr1-D-Ala2, first_seen

Question: For [(R)-β^2hTyr^1]-TAPP*, which cleaved bond [2] is on record?
Answer: Phe4-NH2, first_seen

Question: What does the source list for `C[C@@H](NC(=O)[C@H](CN)Cc1cccc(O)c1)C(=O)N[C@@H](Cc1ccccc1)C(=O)N[C@@H](Cc1ccccc1)C(N)=O` [compound 14, [(S)-β^2h-m-Tyr^1]-TAPP*]?
Answer: IC50 (μ-opioid receptor (μOR); [3]): 11.2 ± 6.3 nM; site of the first proteolytic cleavage [1]: C-terminal amide (deamidation); stability in human plasma in words [1]: stability similar to TAPPs; δOR affinity in words (δ-opioid receptor (δOR)): did not exhibit any measurable binding; IC50 (δ-opioid receptor (δOR); [4]): > 10000 nM

Question: For `C[C@@H](NC(=O)[C@@H](CN)Cc1cccc(O)c1)C(=O)N[C@@H](Cc1ccccc1)C(=O)N[C@@H](Cc1ccccc1)C(N)=O` [compound 9, [(R)-β^2h-m-Tyr^1]-TAPP*], which IC50 (μ-opioid receptor (μOR); [3]) is on record?
Answer: 48.9 ± 2.3 nM

Question: What about the “site of the first proteolytic cleavage” value [1] of the same compound?
Answer: C-terminal amide (deamidation)

Question: What about the “stability in human plasma in words” value [1] of the same compound?
Answer: stability similar to TAPPs

Question: And the “δOR affinity in words” value (δ-opioid receptor (δOR))?
Answer: did not exhibit any measurable binding

Question: What about the IC50 (δ-opioid receptor (δOR); [4]) of the same compound?
Answer: > 10000 nM

Question: For `C[C@@H](NC(=O)[C@@H](CN)Cc1ccc(O)cc1)C(=O)N[C@@H](Cc1ccccc1)C(=O)N[C@@H](Cc1ccccc1)C(N)=O` [compound 8, [(R)-β^2hTyr^1]-TAPP*], which IC50 (μ-opioid receptor (μOR); [3]) is on record?
Answer: 77.6 ± 2.4 nM

Question: And the “decrease in μOR affinity compared to the parent TAPP” value (μ-opioid receptor (μOR))?
Answer: about 15 fold

Question: What about the “site of the first proteolytic cleavage” value [1] of the same compound?
Answer: C-terminal amide (deamidation)

Question: What about the “stability in human plasma in words” value [1] of the same compound?
Answer: stability similar to TAPPs

Question: And the “δOR affinity in words” value (δ-opioid receptor (δOR))?
Answer: did not exhibit any measurable binding

Question: What about the IC50 (δ-opioid receptor (δOR); [4]) of the same compound?
Answer: > 10000 nM

Question: Which results are given for `C[C@@H](NC(=O)[C@@H](N)Cc1ccc(O)cc1)C(=O)N[C@@H](Cc1ccccc1)C(=O)N[C@@H](Cc1ccccc1)C(N)=O` [compound 1, H-Tyr-D-Ala-Phe-Phe-NH2, reference compound] (HELM PEPTIDE1{Y.[dA].F.F.[am]}$$$$V2.0)?
Answer: remaining at 96 h, 350 µM ([1]; 37 °C): > 90%; site of the first proteolytic cleavage [1]: C-terminal amide (deamidation); stability in human plasma in words [1]: resistant to proteolysis; IC50 (δ-opioid receptor (δOR)): 616 nM; δOR affinity in words (δ-opioid receptor (δOR)): low binding

Question: With [(S)-β^2hPhe^3]-TAPP as the compound, how does the cleaved bond [2] read?
Answer: Tyr1-D-Ala2, first_seen

Question: What does the source list for `C[C@@H](NC(=O)[C@@H](N)Cc1ccc(O)cc1)C(=O)NC[C@H](Cc1ccccc1)C(=O)N[C@@H](Cc1ccccc1)C(N)=O` [compound 16, [(S)-β^2hPhe^3]-TAPP]?
Answer: IC50 (μ-opioid receptor (μOR)): 15.5 ± 2.5 nM; remaining at 96 h, 350 µM ([1]; 37 °C): > 65%; IC50 (δ-opioid receptor (δOR)): 890 nM; δOR affinity in words (δ-opioid receptor (δOR)): at a level similar to the parent TAPP

Question: What does the source list for `C[C@@H](NC(=O)[C@@H](N)Cc1ccc(O)cc1)C(=O)NC[C@@H](Cc1ccccc1)C(=O)N[C@@H](Cc1ccccc1)C(N)=O` [compound 11, [(R)-β^2hPhe^3]-TAPP]?
Answer: IC50 (μ-opioid receptor (μOR)): 95.4 ± 2.5 nM; decrease in μOR affinity compared to the parent TAPP (μ-opioid receptor (μOR)): more than 10 fold; half-life at […] ([1]; 37 °C): ~40 h; IC50 (δ-opioid receptor (δOR)): 794 nM; δOR affinity in words (δ-opioid receptor (δOR)): at a level similar to the parent TAPP

Question: With `C[C@@H](NC(=O)[C@H](CN)Cc1ccc(O)cc1)C(=O)N[C@@H](Cc1ccccc1)C(=O)N[C@@H](Cc1ccccc1)C(N)=O` [compound 13, [(S)-β^2hTyr^1]-TAPP*] as the compound, how does the IC50 (μ-opioid receptor (μOR); [3]) read?
Answer: 339 ± 5.1 nM

Question: And the “site of the first proteolytic cleavage” value [1]?
Answer: C-terminal amide (deamidation)

Question: And the “stability in human plasma in words” value [1]?
Answer: stability similar to TAPPs

Question: What about the “δOR affinity in words” value (δ-opioid receptor (δOR)) of the same compound?
Answer: did not exhibit any measurable binding

Question: What about the IC50 (δ-opioid receptor (δOR); [4]) of the same compound?
Answer: > 10000 nM

Question: With [(R)-β^2hPhe^4]-TAPP as the compound, how does the cleaved bond [2] read?
Answer: Tyr1-D-Ala2, first_seen

Question: For [(S)-β^2hAla^2]-TAPP, which cleaved bond [2] is on record?
Answer: Tyr1-(S)-β^2hAla2, first_seen

Question: For `NC(=O)[C@H](Cc1ccccc1)NC(=O)[C@H](Cc1ccccc1)NC(=O)[C@@H]1CCCN1C(=O)[C@@H](N)Cc1ccc(O)cc1` [endomorphin-2, Tyr-Pro-Phe-Phe-NH2, reference compound], which half-life at […] ([1]; same conditions, control sample) is on record?
Answer: 0.5 h

Question: For [(S)-β^2hTyr^1]-TAPP *, which cleaved bond [2] is on record?
Answer: Phe4-NH2, first_seen

Question: For `C[C@H](CNC(=O)[C@@H](N)Cc1ccc(O)cc1)C(=O)N[C@@H](Cc1ccccc1)C(=O)N[C@@H](Cc1ccccc1)C(N)=O` [compound 15, [(R)-β^2hAla^2]-TAPP], which half-life ([1]; 37 °C) is on record?
Answer: ~4.5 h
